Bridges are numbered along the chain shown (N, C = ends). Where no end group is shown, it is not given here.
What was measured:
[1] = tested on: rat closed femur fracture model; assay: Rat closed femur fracture model, callus diameter; type: in vivo; settings: 0.5 mg/kg/day continuous s.c. for one week; 7 days after fracture; versus vehicle group; FIG. 5B
Description: (§1) In accordance with the method of Example 2, a rat closed fracture model was prepared. An administration solution was prepared so as to be a dosage corresponding to 0.5 mg/kg/day by using various NPR-B agonists (CNP derivative A, hCNP-53 (SEQ ID NO: 2), CNP derivative C (CNP-36, amino acid Nos. 18 to 53 of SEQ ID NO: 2), and CNP derivative D (Pro-Gly-CNP37, SEQ ID NO: 15)), and then loaded into an osmotic pump (Model 2001, Alzet). The osmotic pump was buried under the skin of the neck back of the animal retained in a supine position, and continuous subcutaneous administration was performed for one week. Vehicle was administered to the control group. 7 days after the preparation of the bone fracture, the animal was subjected to isoflurane inhalation anesthesia, retained in a supine position to open the abdomen, and then subjected to blood collection from the abdominal aorta. EDTA Na was added to the blood, then the EDTA Na-added blood was centrifuged and the plasma separated, and the resultant was cryopreserved. At a later date, the cGMP level in the plasma was measured by a RIA method using a kit (YSI-7702, YAMASA CORPORATION). After blood collection, the animal was bled for the euthanasia, and then the left femur was resected. Each maximum diameter of the sagittal plane and the coronal plane in the callus was measured, and the average value was used as a callus diameter. In accordance with the method of Example 3, the type X collagen gene expression level in the callus was measured. The measurement was performed for 12 cases in each group.

type X collagen gene = assay: Rat closed femur fracture model, cartilage-related marker gene expression (real-time PCR); type: in vivo; settings: Example 4: 0.5 mg/kg/day continuous s.c. for one week; 7 days after fracture; versus vehicle group; FIG. 5C
Description: In accordance with the method of Example 2, a rat closed fracture model was prepared. For an animal in a Sham group, a pin only was inserted into the femur, and a bone fracture was not prepared. An administration solution of CNP derivative A was prepared so as to be a dosage corresponding to 0.5 mg/kg/day, and then loaded into an osmotic pump (model 2001, Alzet). The osmotic pump was buried under the skin of the neck back of the animal, and continuous subcutaneous administration was performed for one week. Vehicle was continuously subcutaneously administered to the control group. 7 days after the preparation of the bone fracture, the animal was subjected to isoflurane inhalation anesthesia, retained in a supine position to open the abdomen, and then bled for the euthanasia. The left femur was resected, and immersed into RNAlater (Life Technologies Corporation). The diaphysis or part of the callus was cut out from the femur that had been refrigerated in RNAlater for one day or more. To the cut-out diaphysis or part of the callus, QIAzol (QIAGEN) was added, and the resultant was crushed with tungsten beads. The total RNA was extracted by an RNeasy Mini Kit (QIAGEN), and 1st strand cDNA was synthesized by a SuperScript VILO cDNA Synthesis Kit (Life Technologies Corporation). The gene expression level was measured by a real-time PCR method using TaqMan Gene Expression Master Mix (Life Technologies Corporation). The measured value was standardized by the gene expression level of ubiquitin-C. The standardization was performed for 12 cases in each group.
as §1

NPR-B = target: T1, NPR-B (Homo sapiens, UniProt P20594); settings: literature reports (Furuya et al. 1992; US 2010-305031); cited from earlier work
T1 sequence (P20594 23-1047): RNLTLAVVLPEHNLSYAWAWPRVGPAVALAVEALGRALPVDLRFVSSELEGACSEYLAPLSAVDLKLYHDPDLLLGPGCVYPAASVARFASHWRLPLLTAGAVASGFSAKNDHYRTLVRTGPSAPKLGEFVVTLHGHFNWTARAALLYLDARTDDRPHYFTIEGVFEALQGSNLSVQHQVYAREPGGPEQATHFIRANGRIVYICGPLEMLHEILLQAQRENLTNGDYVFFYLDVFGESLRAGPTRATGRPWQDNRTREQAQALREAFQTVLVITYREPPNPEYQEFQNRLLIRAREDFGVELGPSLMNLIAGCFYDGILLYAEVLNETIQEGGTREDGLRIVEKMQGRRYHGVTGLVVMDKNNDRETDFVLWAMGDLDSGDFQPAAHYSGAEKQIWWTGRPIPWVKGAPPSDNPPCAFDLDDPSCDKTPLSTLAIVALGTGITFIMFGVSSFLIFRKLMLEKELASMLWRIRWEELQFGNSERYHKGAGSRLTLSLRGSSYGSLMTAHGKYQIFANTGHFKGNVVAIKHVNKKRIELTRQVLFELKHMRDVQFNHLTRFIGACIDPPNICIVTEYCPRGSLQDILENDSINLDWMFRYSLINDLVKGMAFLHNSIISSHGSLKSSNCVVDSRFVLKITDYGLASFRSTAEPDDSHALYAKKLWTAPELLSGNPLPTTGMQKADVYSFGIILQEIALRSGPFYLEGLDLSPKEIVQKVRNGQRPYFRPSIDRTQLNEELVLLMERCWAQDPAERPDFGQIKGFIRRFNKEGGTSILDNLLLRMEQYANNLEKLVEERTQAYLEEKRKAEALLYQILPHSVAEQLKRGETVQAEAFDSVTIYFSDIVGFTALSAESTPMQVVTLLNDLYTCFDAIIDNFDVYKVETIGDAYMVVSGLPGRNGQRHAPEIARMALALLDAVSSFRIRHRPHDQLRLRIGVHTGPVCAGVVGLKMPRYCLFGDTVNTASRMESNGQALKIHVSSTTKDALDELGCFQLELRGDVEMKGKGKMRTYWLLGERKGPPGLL

Substance | Maximum diameter of the callus generated in the left femur [1] | Gene expression level of type X collagen in the callus (type X collagen gene) | NPR-B agonist activity compared with hCNP-22 (in words) (NPR-B)
hCNP-53: human-derived CNP-53, DLRVDTKSRAAWARLLQEHPNARKYKGANKKGLSKGCFGLKLDRIGSMSGLGC: SEQ ID NO: 2 (DLRVDTKSRAAWARLLQEHPNARKYKGANKKGLSKGCFGLKLDRIGSMSGLGC; mammalian) [reference compound] | significantly larger | suppressed | –
CNP6-22: peptide consisting of only the ring structure, amino acid Nos. 6 to 22 of SEQ ID NO: 1 (CFGLKLDRIGSMSGLGC; disulfide 1-17 (inferred)) | – | – | almost the same NPR-B agonist activity as that of hCNP-22
CNP derivative C: hCNP-36, 17 consecutive amino acids from the N terminus of hCNP-53 deleted; amino acid Nos. 18 to 53 of SEQ ID NO: 2 (EHPNARKYKGANKKGLSKGCFGLKLDRIGSMSGLGC; mammalian) | significantly larger | significantly suppressed | –
CNP derivative D: Pro-Gly-CNP37, SEQ ID NO: 15; derivative described in WO 2009/067639 (PGQEHPNARKYKGANKKGLSKGCFGLKLDRIGSMSGLGC; CNP derivative D, which disclosed in Am. J. Hum. Gent.(2012), 91(6), 1108-1114) | significantly larger | significantly suppressed | –

From patent US20150125457A1, “BONE REPAIR PROMOTER” (DAIICHI SANKYO COMPANY, LIMITED, priority 2012, published 2015)
